Experimental data taken from paper PMC7887271, “Fast acting allosteric phosphofructokinase inhibitors block trypanosome glycolysis and cure acute African trypanosomiasis in mice” (Nature Communications, 2021).
Several values for one entry are separate records, joined by “and”; a condition that tells them apart may be missing. Equal values may be shown once.

Tested on: T. b. brucei GVR35-Luc2
Assay: T. b. brucei GVR35-Luc2 time-to-kill assay (luciferin)
Format: cell-based
Details: for Luminescence (medium-subtracted), Average: average of replicates; for % Cell viability, individual replicates / % Inhibition, individual replicates / Luminescence (medium-subtracted), individual replicates: replicate wells; for Luminescence, Average / Luminescence, individual replicates: Time to kill assay for GVR35 cells
Procedure: Enzyme activity was measured using an aldolase/TIM linked assay at 25 °C. […] Experiments were carried out in duplicate. Data are presented as mean values ± standard deviation. […] Source data are provided as a Source Data File. b Kill time of CTCB-405 compared with existing HAT drugs in the clinic. […] Over 99% of trypanosomes were killed in under 30 min compared with much slower killing rates for the other drugs. The points on the graph for CTCB-405 were determined from two independent biological replicate experiments with each time point measured twice (using duplicate technical replicates). The ESD for each point on the graph is between 0.7 and 1.4%. For drugs in clinical use each point on the graph is the average of two technical replicates from one experiment (with a maximum difference of 7.8% for any of the points). Source data are provided as a Source Data File.
As predicted from the biology of the BSF that relies wholly on glycolysis for ATP production, inhibition of the pathway results in a very fast TTK. Two experimental methods were used to measure ATP levels as a real-time indicator of viability. For Tb427 parasites, a Cell Titre Glo kit was used and for the TbGVR35 bioluminescent strain, killing was assessed by adding luciferin which requires ATP to produce a luminescent signal (Supplementary Methods 4.3 and 4.4). […] The BSF of T. brucei cannot produce ATP by oxidative phosphorylation and is solely dependent on flux through the glycolytic pathway. The clear correlation between inhibitor dose and reduction in ATP production, as observed in the TTK assays strongly supports the proposed mode of action of the CTCB compounds is by blocking glycolysis. It is a long-established experimental observation that withdrawal of glucose nutrient leads to rapid loss of motility and cell death. It has recently been shown that the BSF of T. brucei can proliferate on high levels of glycerol; however, we have shown that addition of glycerol to the medium has little effect on parasite killing by the CTCB compounds (Supplementary Table 3).
The killing of T. b. brucei GVR35-Luc2 was assessed by adding D-luciferin to live cells resulting in the production of light in the presence of ATP and luciferase activity. Compounds of interest were serially diluted from 16 µM to 0.5 µM in Modified HMI-9 medium and added into sterile white, flat bottom 96-well plate (Greiner Inc.). 32,000 trypanosomes were added to each well. The plates were incubated at 37 °C and 5% CO2. At the end of each incubation, 200 µg/ml of D-luciferin was added to each well and incubated for 10 min. Luminescence was measured using a BMG plate reader and percentage cell viability versus incubation time was determined.

[1] = 0.5 h, mean, suramin, fexinidazole, SCYX-7158 11 µM, CTCB-405 4 µM
[2] = 1 h, mean, suramin, fexinidazole, SCYX-7158 11 µM, CTCB-405 4 µM
[3] = 8 h, mean, suramin, fexinidazole, SCYX-7158 11 µM, CTCB-405 4 µM
[4] = GVR35 TTK, 24 h incubation, average
[5] = GVR35 TTK, 24 h incubation, from average
[6] = 6 h, mean, suramin, fexinidazole, SCYX-7158 11 µM, CTCB-405 4 µM
[7] = GVR35 TTK, 24 h sheet, summary line marked "4"

CSc1ccc(OCc2ncc([N+](=O)[O-])n2C)cc1 [Fexinidazole, fexinidazole]
TTK (time-to-kill) value: > 20 h
% Cell viability, single replicates (0.5 h): 54% and 59%
% Inhibition, single replicates (0.5 h): 46% and 41%
% Cell viability (0.5 h, average): 57%
% Inhibition [1]: 43%
% Cell viability, single replicates (1 h): 46% and 57%
% Inhibition, single replicates (1 h): 54%
% Cell viability (1 h, average): 52%
% Inhibition [2]: 48%
% Cell viability, single replicates (2 h): 61%
% Inhibition, single replicates (2 h): 39%
% Cell viability (2 h, average): 57%
% Cell viability, single replicates (4 h): 58% and 63%
% Inhibition, single replicates (4 h): 42% and 37%
% Cell viability (4 h, average): 61%
% Cell viability, single replicates (6 h): 62% and 60%
% Inhibition, single replicates (6 h): 38% and 40%
% Cell viability (6 h, average): 61%
% Cell viability, single replicates (8 h): 55%
% Inhibition, single replicates (8 h): 45%
% Cell viability (8 h, average): 55%
% Inhibition [3]: 45%
% Cell viability, Average [4]: 18%
Luminescence (medium-subtracted), Average (GVR35 TTK, 24 h incubation): 18856.5
% Inhibition [5]: 83%
% Cell viability, individual replicates (GVR35 TTK, 24 h incubation): 16% and 19%
% Inhibition, individual replicates (GVR35 TTK, 24 h incubation): 84% and 81%
Luminescence (medium-subtracted), individual replicates (GVR35 TTK, 24 h incubation): 18923.5 and 18789.5
Luminescence, Average (0.5 hour incubation): 5213
Luminescence, individual replicates (0.5 hour incubation): 5083 and 5343
Luminescence, Average (1hour incubation): 6274
Luminescence, individual replicates (1hour incubation): 5678 and 6870
Luminescence, Average (2hour incubation): 8146
Luminescence, individual replicates (2hour incubation): 8389 and 7903
Luminescence, Average (4hour incubation): 11135
Luminescence, individual replicates (4hour incubation): 10890 and 11380
Luminescence, Average (6hour incubation): 20713
Luminescence, individual replicates (6hour incubation): 21007 and 20418
Luminescence, Average (8hour incubation): 17103
Luminescence, individual replicates (8hour incubation): 17279 and 16927
Luminescence, Average (24hour incubation): 18857
Luminescence, individual replicates (24hour incubation): 18924 and 18790

CC1(C)OB(O)c2cc(NC(=O)c3ccc(F)cc3C(F)(F)F)ccc21 [SCYX-7158]
% Cell viability, single replicates (0.5 h): 82% and 93%
% Inhibition, single replicates (0.5 h): 18% and 6.51%
% Cell viability (0.5 h, average): 88%
% Inhibition [1]: 12%
% Cell viability, single replicates (1 h): 78%
% Inhibition, single replicates (1 h): 22%
% Cell viability (1 h, average): 80%
% Inhibition [2]: 20%
% Cell viability, single replicates (2 h): 84% and 77%
% Inhibition, single replicates (2 h): 16% and 23%
% Cell viability (2 h, average): 80%
% Cell viability, single replicates (4 h): 53% and 55%
% Inhibition, single replicates (4 h): 47% and 45%
% Cell viability (4 h, average): 54%
% Inhibition (4 h, mean, suramin, fexinidazole, SCYX-7158 11 µM, CTCB-405 4 µM): 46%
% Cell viability, single replicates (6 h): 30% and 31%
% Inhibition, single replicates (6 h): 70% and 69%
% Cell viability (6 h, average): 31%
% Inhibition [6]: 69%
% Cell viability, single replicates (8 h): 16% and 15%
% Inhibition, single replicates (8 h): 84% and 85%
% Cell viability (8 h, average): 16%
% Inhibition [3]: 84%
% Cell viability, Average [4]: -0.0868%
Luminescence (medium-subtracted), Average (GVR35 TTK, 24 h incubation): 8.5
% Inhibition [5]: 100%
% Cell viability, individual replicates (GVR35 TTK, 24 h incubation): -0.0698% and -0.104%
% Inhibition, individual replicates (GVR35 TTK, 24 h incubation): 100%
Luminescence (medium-subtracted), individual replicates (GVR35 TTK, 24 h incubation): 16.5 and 0.5
% Cell viability [7]: -0.085%
Luminescence, Average (0.5 hour incubation): 8054
Luminescence, individual replicates (0.5 hour incubation): 7697 and 8411
Luminescence, Average (1hour incubation): 9657
Luminescence, individual replicates (1hour incubation): 9531 and 9783
Luminescence, Average (2hour incubation): 11337
Luminescence, individual replicates (2hour incubation): 11424 and 11249
Luminescence, Average (4hour incubation): 9915
Luminescence, individual replicates (4hour incubation): 9827 and 10004
Luminescence, Average (6hour incubation): 10493
Luminescence, individual replicates (6hour incubation): 10240 and 10745
Luminescence, Average (8hour incubation): 4975
Luminescence, individual replicates (8hour incubation): 5108 and 4842
Luminescence, Average (24hour incubation): 8.5
Luminescence, individual replicates (24hour incubation): 17 and 0.5

Cc1ccc(C(=O)Nc2ccc(S(=O)(=O)O)c3cc(S(=O)(=O)O)cc(S(=O)(=O)O)c23)cc1NC(=O)c1cccc(NC(=O)Nc2cccc(C(=O)Nc3cc(C(=O)Nc4ccc(S(=O)(=O)O)c5cc(S(=O)(=O)O)cc(S(=O)(=O)O)c45)ccc3C)c2)c1 [Suramin, suramin]
TTK (time-to-kill) value: > 20 h
% Cell viability, single replicates (0.5 h): 91% and 97%
% Inhibition, single replicates (0.5 h): 9% and 2.59%
% Cell viability (0.5 h, average): 94%
% Inhibition [1]: 6%
% Cell viability, single replicates (1 h): 87% and 92%
% Inhibition, single replicates (1 h): 13% and 7.55%
% Cell viability (1 h, average): 90%
% Inhibition [2]: 10%
% Cell viability, single replicates (2 h): 95% and 89%
% Inhibition, single replicates (2 h): 4.69% and 11%
% Cell viability (2 h, average): 92%
% Inhibition (2 h, mean, suramin, fexinidazole, SCYX-7158 11 µM, CTCB-405 4 µM): 8%
% Cell viability, single replicates (4 h): 86%
% Inhibition, single replicates (4 h): 14% and 8.56%
% Cell viability (4 h, average): 89%
% Cell viability, single replicates (6 h): 80% and 82%
% Inhibition, single replicates (6 h): 20% and 18%
% Cell viability (6 h, average): 81%
% Inhibition [6]: 19%
% Cell viability, single replicates (8 h): 62% and 63%
% Inhibition, single replicates (8 h): 38% and 37%
% Cell viability (8 h, average): 62%
% Inhibition [3]: 38%
% Cell viability, Average [4]: 1.08%
Luminescence (medium-subtracted), Average (GVR35 TTK, 24 h incubation): 1271
% Inhibition [5]: 99%
% Cell viability, individual replicates (GVR35 TTK, 24 h incubation): 1.06% and 1.11%
% Inhibition, individual replicates (GVR35 TTK, 24 h incubation): 99%
Luminescence (medium-subtracted), individual replicates (GVR35 TTK, 24 h incubation): 1370.5 and 1171.5
% Cell viability [7]: 1.08%
Luminescence, Average (0.5 hour incubation): 8640
Luminescence, individual replicates (0.5 hour incubation): 8520 and 8761
Luminescence, Average (1hour incubation): 10793
Luminescence, individual replicates (1hour incubation): 10604 and 10981
Luminescence, Average (2hour incubation): 13042
Luminescence, individual replicates (2hour incubation): 13027 and 13057
Luminescence, Average (4hour incubation): 16276
Luminescence, individual replicates (4hour incubation): 16058 and 16495
Luminescence, Average (6hour incubation): 27456
Luminescence, individual replicates (6hour incubation): 27109 and 27803
Luminescence, Average (8hour incubation): 19408
Luminescence, individual replicates (8hour incubation): 19222 and 19594
Luminescence, Average (24hour incubation): 1271
Luminescence, individual replicates (24hour incubation): 1371 and 1172
